Calls of active or inactive are those of the source. The rule behind the calls is not given here.
Legend:
Assay type in all cases: functional, cell-based
PC-3 [1] = assay: Antimigratory activity against human PC3 cells assessed as inhibition of cell migration after 24 hrs by wound healing assay; conditions: PC-3, 24 h
PC-3 [2] = assay: Antimigratory activity against human PC3 cells assessed as migrated cells measured under microscope at 37 uM after 24 hrs by wound healing assay relative to control
PC-3 [3] = assay: Antiinvasive activity against human PC3 cells assessed as inhibition of cells invaded across basement membrane extract at 50 uM by calcein-acetomethylester fluorescence analysis

IC50 (PC-3 [1]; read-out: IC50) [µM] | IC50 (PC-3 [1]; read-out: pIC50 (converted)) [µM] | SMILES | Activity (PC-3 [2]) | Activity (PC-3 [3])
44 | 44 | C=C1CC[C@H](C(C)C)[C@@H]2[C@H]1[C@H]1CC(=C)[C@@H](O)CC[C@@](C)(OC(C)=O)[C@@H]2O1 |  | 
52 | 52 | CC(=O)O[C@]1(C)CC[C@H](C(C)C)[C@@H]2[C@H]1[C@H]1C[C@]3(C)CCC[C@@](C)(O3)[C@@H]2O1 |  | 
36 | 36 | C=C1CC[C@H](C(C)C)[C@@H]2[C@H]1[C@H]1CC(=C)[C@@H](OC(C)=O)CC[C@@](C)(OC(C)=O)[C@@H]2O1 |  | 
122 | 122 | C=C1CC[C@H](C(C)C)[C@@H]2[C@H]1[C@H]1CC(=C)[C@@H](OC(=O)NCCCCCCCC)CC[C@@](C)(O)[C@@H]2O1 |  | 
57 | 57 | C=C1CC[C@H](C(C)C)[C@@H]2[C@H]1[C@H]1CC(=C)[C@@H](OC(=O)Nc3ccccc3)CC[C@@](C)(O)[C@@H]2O1 |  | 
43 | 43 | C=C1CC[C@H](C(C)C)[C@@H]2[C@H]1[C@H]1CC(=C)[C@@H](OC(=O)NCCCCC)CC[C@@](C)(O)[C@@H]2O1 |  | 
37 | 37 | C=C1CC[C@H](C(C)C)[C@@H]2[C@H]1[C@H]1CC(=C)[C@@H](OC(=O)NCCCC)CC[C@@](C)(O)[C@@H]2O1 | Active | Active
30 | 30 | C=C1CC[C@H](C(C)C)[C@@H]2[C@H]1[C@H]1CC(=C)[C@@H](OC(=O)N(Cc3ccccc3)C(=O)NCc3ccccc3)CC[C@@](C)(O)[C@@H]2O1 |  | Active
97 | 97 | C=CCNC(=O)N(CC=C)C(=O)N(CC=C)C(=O)O[C@H]1CC[C@@](C)(O)[C@@H]2O[C@H](CC1=C)[C@H]1C(=C)CC[C@H](C(C)C)[C@H]12 |  | 
67 | 67 | C=C1CC[C@H](C(C)C)[C@@H]2[C@H]1[C@H]1CC(=C)[C@@H](OC(=O)NCCCCl)CC[C@@](C)(O)[C@@H]2O1 |  | 
70 | 70 | C=C1C[C@H]2O[C@H]([C@H]3[C@@H]2[C@]2(CC[C@@H]3C(C)C)CO2)[C@](C)(O)CC[C@@H]1OC(=O)N(Cc1ccccc1)C(=O)NCc1ccccc1 |  | 
90 | 90 | C=C1C[C@H]2O[C@H]([C@H]3[C@@H]2[C@]2(CC[C@@H]3C(C)C)CO2)[C@](C)(O)CC[C@@H]1OC(=O)NCCCC (relative stereo) |  | 
160 | 160 | C=C1C[C@H]2O[C@H]([C@H]3[C@@H]2[C@]2(CC[C@@H]3C(C)C)CO2)[C@](C)(O)CC[C@@H]1O (relative stereo) |  | Active
59 | 59 | C=C1CC[C@H](C(C)C)[C@@H]2[C@H]1[C@H]1C[C@](C)(O)[C@@H](OC)CCC(C)(O)[C@@H]2O1 (single isomer, unassigned) [SCLEROPHYTIN F METHYL ETHER] |  | 
84 | 84 | C=C1CC[C@H](C(C)C)[C@@H]2[C@H]1[C@H]1C/C(C)=C\CC[C@@](C)(O)[C@@H]2O1 [6Z-CLADIELLIN] |  | 
88 | 88 | C=C1CC[C@H](C(C)C)[C@@H]2[C@H]1[C@@H]1CC(=C)[C@@H](O)CC[C@](C)(O)[C@H]2O1 [CLADIELLISIN] |  | Active
125 | 125 | C=C1C[C@H]2O[C@H]([C@@H]3[C@@H](C(C)C)[C@H](O)C[C@@](C)(OC(C)=O)[C@@H]32)[C@](C)(OC(C)=O)CC[C@@H]1O [KLYSIMPLEXIN E] |  | 
16 | 16 | CC(=O)O[C@]1(C)CC[C@H](C(C)C)[C@@H]2[C@H]1[C@H]1C[C@](C)(O)[C@@H](O)CC[C@@](C)(OC(C)=O)[C@@H]2O1 [KLYSIMPLEXIN G] |  | 
5 | 5 | CCCC(=O)O[C@]1(C)CC[C@H](C(C)C)[C@@H]2[C@H]1[C@H]1C[C@](C)(O)[C@@H](O)CC[C@@](C)(OC(C)=O)[C@@H]2O1 [PACHYCLADIN A] |  | 
88 | 88 | C=C1C[C@H]2O[C@H]([C@@H]3[C@@H](C(C)C)[C@H](O)C[C@@](C)(OC(=O)CCC)[C@@H]32)[C@](C)(OC(C)=O)CC[C@@H]1O [PACHYCLADIN B] |  | 
56 | 56 | C=C1CC[C@H](C(C)C)[C@@H]2[C@H]1[C@H]1CC(=C)[C@@H](OC(C)=O)CC[C@@](C)(O)[C@@H]2O1 [PACHYCLADIN C] |  | 
75 | 75 | C=C1CC[C@H](C(C)C)[C@@H]2[C@H]1[C@H]1CC(=C)[C@]3(O)CC[C@@](C)(O3)[C@@H]2O1 [PACHYCLADIN D] |  | 
64 | 64 | C=C1C[C@H]2O[C@H]([C@H]3[C@@H]2[C@](C)(OC(C)=O)CC[C@@H]3C(C)C)[C@@]2(C)CC[C@]1(O)O2 [PACHYCLADIN E] |  | 
76 | 76 | C=C1CC[C@H](C(C)C)[C@@H]2[C@H]1[C@H]1C[C@](C)(O)[C@@H](OCC)CC[C@@](C)(O)[C@@H]2O1 [PATAGONICOL] |  | 
84 | 84 | C=C1CC[C@H](C(C)C)[C@@H]2[C@H]1[C@H]1C[C@](C)(O)[C@@H](O)CC[C@@](C)(O)[C@@H]2O1 [SCLEROPHYTIN A] |  | 
160 | 159 | C=C1CC[C@H](C(C)C)[C@@H]2[C@H]1[C@H]1C[C@](C)(O)[C@@H](O)CC[C@@](C)(OC(C)=O)[C@@H]2O1 [SCLEROPHYTIN B] |  | 

Reference: ChEMBL document CHEMBL1759878, “Design of semisynthetic analogues and 3D-QSAR study of eunicellin-based diterpenoids as prostate cancer migration and invasion inhibitors” (Eur J Med Chem, 2011)
